Measured values taken from ChEMBL document CHEMBL3112413, “Novel coumarin-dihydropyrazole thio-ethanone derivatives: design, synthesis and anticancer activity” (Eur J Med Chem, 2014).
Activity calls are given as the source filed them. The rule behind the calls is not given here.

Columns and labels:
HepG2 = experiment: Cytotoxicity against human HepG2 cells after 48 hrs by MTT assay; format: functional, cell-based; conditions: HepG2, 48 h
Bcap37 = experiment: Cytotoxicity against human Bcap37 cells after 48 hrs by MTT assay; format: functional, cell-based; conditions: Bcap37, 48 h
MGC-803 [1] = experiment: Cytotoxicity against human MGC803 cells after 48 hrs by MTT assay; format: functional, cell-based; conditions: MGC-803, 48 h
[2] = Cytotoxicity against human SGC7901 cells after 48 hrs by MTT assay; format: functional, cell-based; conditions: SGC-7901, 48 h
[3] = molecular target: Telomerase reverse transcriptase (Homo sapiens, UniProt O14746); experiment: Inhibition of telomerase in human MGC803 cell extracts after 24 hrs by TRAP-PCR-ELISA; parameters: species or system MGC-803
[4] = molecular target: DNA polymerase I, thermostable (Thermus aquaticus) (UniProt P19821); experiment: Inhibition of Thermus aquaticus Taq polymerase at IC50 for telomerase inhibition after 15 mins using ethidium bromide staining by 2% agarose gel electrophoresis analysis
MGC-803 [5] = experiment: Cell cycle arrest in human MGC803 cells at 0.92 uM after 48 hrs using propidium iodide staining after 48 hrs by flow cytometer relative to control; format: functional
MGC-803 [6] = experiment: Cell cycle arrest in human MGC803 cells assessed as accumulation at G0/G1 phase at 25 uM after 48 hrs using propidium iodide staining after 48 hrs by flow cytometer relative to control; format: functional
MGC-803 [7] = experiment: Cell cycle arrest in human MGC803 cells assessed as accumulation at G2/M phase at 25 uM after 48 hrs using propidium iodide staining after 48 hrs by flow cytometer relative to control; format: functional
MGC-803 [8] = experiment: Cell cycle arrest in human MGC803 cells assessed as accumulation at S phase at 25 uM after 48 hrs using propidium iodide staining after 48 hrs by flow cytometer relative to control; format: functional
MGC-803 [9] = experiment: Cell cycle arrest in human MGC803 cells assessed as accumulation at S phase at […] uM after 48 hrs using propidium iodide staining after 48 hrs by flow cytometer relative to control; format: functional
MGC-803 [10] = experiment: Cell cycle arrest in human MGC803 cells assessed as accumulation at G2/M phase at […] uM after 48 hrs using propidium iodide staining after 48 hrs by flow cytometer relative to control; format: functional
MGC-803 [11] = experiment: Cell cycle arrest in human MGC803 cells assessed as accumulation at G0/G1 phase at […] uM after 48 hrs using propidium iodide staining after 48 hrs by flow cytometer relative to control; format: functional

Chain of Telomerase reverse transcriptase (O14746 whole entry): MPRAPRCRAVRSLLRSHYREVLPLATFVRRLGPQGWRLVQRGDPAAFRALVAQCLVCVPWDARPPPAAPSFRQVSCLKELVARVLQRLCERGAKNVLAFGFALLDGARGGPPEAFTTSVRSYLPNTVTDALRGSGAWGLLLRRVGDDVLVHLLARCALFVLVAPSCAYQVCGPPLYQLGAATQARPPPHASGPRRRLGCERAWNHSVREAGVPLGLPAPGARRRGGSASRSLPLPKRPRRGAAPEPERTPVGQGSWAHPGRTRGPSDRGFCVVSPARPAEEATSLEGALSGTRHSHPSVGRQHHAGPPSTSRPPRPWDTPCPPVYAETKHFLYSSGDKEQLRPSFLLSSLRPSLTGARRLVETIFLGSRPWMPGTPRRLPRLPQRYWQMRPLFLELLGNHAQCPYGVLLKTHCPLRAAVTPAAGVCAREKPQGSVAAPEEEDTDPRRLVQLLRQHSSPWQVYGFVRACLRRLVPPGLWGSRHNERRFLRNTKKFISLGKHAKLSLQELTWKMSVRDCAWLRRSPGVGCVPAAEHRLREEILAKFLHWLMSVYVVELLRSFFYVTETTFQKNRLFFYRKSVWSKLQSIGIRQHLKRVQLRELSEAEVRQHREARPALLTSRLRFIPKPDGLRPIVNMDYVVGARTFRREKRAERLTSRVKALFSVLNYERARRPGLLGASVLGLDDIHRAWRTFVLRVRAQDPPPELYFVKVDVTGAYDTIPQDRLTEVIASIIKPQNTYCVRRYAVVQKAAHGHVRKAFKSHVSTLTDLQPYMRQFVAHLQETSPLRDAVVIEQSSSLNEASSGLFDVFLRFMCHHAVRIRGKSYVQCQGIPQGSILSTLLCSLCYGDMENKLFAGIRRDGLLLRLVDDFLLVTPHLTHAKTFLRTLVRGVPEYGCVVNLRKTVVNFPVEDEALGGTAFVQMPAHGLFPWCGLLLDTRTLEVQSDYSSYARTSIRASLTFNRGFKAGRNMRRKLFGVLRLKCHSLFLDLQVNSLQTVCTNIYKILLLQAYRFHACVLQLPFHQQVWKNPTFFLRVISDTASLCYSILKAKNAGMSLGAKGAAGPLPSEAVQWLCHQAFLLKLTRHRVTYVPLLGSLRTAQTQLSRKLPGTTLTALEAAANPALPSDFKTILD
Chain of DNA polymerase I, thermostable (Thermus aquaticus) (P19821 whole entry): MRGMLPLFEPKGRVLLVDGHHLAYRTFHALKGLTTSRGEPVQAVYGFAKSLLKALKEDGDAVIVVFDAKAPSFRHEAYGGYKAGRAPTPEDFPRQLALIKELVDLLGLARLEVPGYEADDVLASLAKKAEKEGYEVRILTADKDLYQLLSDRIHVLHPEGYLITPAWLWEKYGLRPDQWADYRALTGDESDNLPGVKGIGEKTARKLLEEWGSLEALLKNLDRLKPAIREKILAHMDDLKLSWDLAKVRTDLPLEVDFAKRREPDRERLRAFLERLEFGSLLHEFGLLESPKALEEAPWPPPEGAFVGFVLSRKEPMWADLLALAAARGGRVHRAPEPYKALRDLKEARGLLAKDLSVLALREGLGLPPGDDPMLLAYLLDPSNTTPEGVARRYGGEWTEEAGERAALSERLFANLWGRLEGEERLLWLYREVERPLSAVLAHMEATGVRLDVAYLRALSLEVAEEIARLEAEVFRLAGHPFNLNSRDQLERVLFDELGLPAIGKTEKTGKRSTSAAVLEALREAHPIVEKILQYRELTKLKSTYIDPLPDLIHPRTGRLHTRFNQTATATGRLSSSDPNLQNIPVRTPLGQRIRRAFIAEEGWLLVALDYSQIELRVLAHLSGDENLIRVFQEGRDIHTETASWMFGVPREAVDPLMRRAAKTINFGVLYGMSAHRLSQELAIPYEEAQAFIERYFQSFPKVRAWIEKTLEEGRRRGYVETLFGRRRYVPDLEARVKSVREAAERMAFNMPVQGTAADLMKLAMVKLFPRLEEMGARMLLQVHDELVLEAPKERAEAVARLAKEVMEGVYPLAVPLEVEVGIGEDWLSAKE

Work on `O=C(CSc1ccc([N+](=O)[O-])cc1)N1N=C(c2cc3ccccc3oc2=O)C[C@@H]1c1ccc(C(F)(F)F)cc1` yielded an IC50 (HepG2) of 7.76 µM, an IC50 (Bcap37) of 16.5 µM and an IC50 (MGC-803 [1]) of 10.2 µM. The IC50 [2] was 8.51 µM.
Work on `CCCCSCC(=O)N1N=C(c2cc3ccccc3oc2=O)C[C@@H]1c1ccccc1` yielded an IC50 (HepG2) of 6.64 µM, an IC50 (Bcap37) of 9.7 µM and an IC50 (MGC-803 [1]) of 12.8 µM. It also gave an IC50 [2] of 7.3 µM.
With `O=C(CSCc1ccco1)N1N=C(c2cc3ccccc3oc2=O)C[C@@H]1c1ccccc1C(F)(F)F` the IC50 (HepG2) was 18 µM, the IC50 (Bcap37) was 10.3 µM and the IC50 (MGC-803 [1]) was 15.7 µM. For the same molecule, the IC50 [2] was 10.2 µM.
For `O=C(CSc1ccc([N+](=O)[O-])cc1)N1N=C(c2cc3ccccc3oc2=O)C[C@@H]1c1ccccc1C(F)(F)F`, the IC50 (HepG2) was 7.7 µM, the IC50 (Bcap37) was 10.8 µM and the IC50 (MGC-803 [1]) was 7.58 µM. It also gave an IC50 [2] of 9.77 µM.
`COC(=O)CSCC(=O)N1N=C(C)C[C@@H]1c1cc(Br)cc(Br)c1O` gave an IC50 (HepG2) of 2.95 µM, an IC50 [3] of 1.19 µM and an IC50 (Bcap37) of 3.7 µM. The inhibition [4] was “inactive”, the IC50 (MGC-803 [1]) was 2.27 µM and the IC50 [2] was 3.3 µM.
For `O=C(CSc1ncccn1)N1N=C(c2cc3ccccc3oc2=O)C[C@@H]1c1ccccc1C(F)(F)F`, the IC50 (HepG2) was 6.54 µM, the IC50 [3] was 8.89 µM and the IC50 (Bcap37) was 4.09 µM. For the same molecule, the inhibition [4] was “inactive”, the IC50 (MGC-803 [1]) was 4 µM and the IC50 [2] was 4.97 µM.
In the case of `CCCCSCC(=O)N1N=C(c2cc3ccccc3oc2=O)C[C@@H]1c1ccc(C(F)(F)F)cc1`, the IC50 (HepG2) is reported as 8.68 µM, the IC50 [3] is reported as 0.92 µM and the IC50 (Bcap37) is reported as 3.55 µM. The inhibition [4] was “inactive”, the Activity (MGC-803 [5]) was 66% and the IC50 (MGC-803 [1]) was 2.35 µM. The IC50 [2] was 2.91 µM.
`O=c1cc(N2CCOCC2)oc2c(-c3ccccc3)cccc12` [LY-294002] gave an Activity (MGC-803 [6]) of 50.5%, an Activity (MGC-803 [7]) of 22.4% and an Activity (MGC-803 [8]) of 27.1%.
`CC1=NN(C(=O)CSc2ccccn2)[C@@H](c2cc(Br)cc(Br)c2O)C1` showed an IC50 (HepG2) of 24.7 µM, an IC50 (Bcap37) of 16.7 µM and an IC50 (MGC-803 [1]) of 12.3 µM. For the same molecule, the IC50 [2] was 10.3 µM.
For `C/C(=C\C(=O)Nc1ccccc1C(=O)O)c1ccc2ccccc2c1`, the IC50 [3] was 0.28 µM.
For `CC1=NN(C(=O)CSc2ccccc2)[C@@H](c2cc(Br)cc(Br)c2O)C1`, the IC50 (HepG2) was 10.3 µM, the IC50 (Bcap37) was 13.1 µM and the IC50 (MGC-803 [1]) was 12.7 µM. It also gave an IC50 [2] of 24.1 µM.
With `CC[n+]1c(-c2ccccc2)c2cc(N)ccc2c2ccc(N)cc21` [HOMIDIUM BROMIDE] the IC50 [3] was 2.1 µM.
For `CCCCSCC(=O)N1N=C(c2cc3ccccc3oc2=O)C[C@@H]1c1ccccc1C(F)(F)F`, the IC50 (HepG2) was 5.01 µM, the IC50 [3] was 2 µM and the IC50 (Bcap37) was 9.73 µM. The inhibition [4] was “inactive”, the IC50 (MGC-803 [1]) was 3.14 µM and the IC50 [2] was 4.42 µM.
Molecule `O=C(CSc1ccc(Br)cc1)N1N=C(c2cc3ccccc3oc2=O)C[C@@H]1c1ccccc1C(F)(F)F` has an IC50 (HepG2) of 17.9 µM, an IC50 (Bcap37) of 10.3 µM and an IC50 (MGC-803 [1]) of 21.3 µM. It also gave an IC50 [2] of 14.7 µM.
Work on `O=C(CSc1ccc(Br)cc1)N1N=C(c2cc3ccccc3oc2=O)C[C@@H]1c1ccc(C(F)(F)F)cc1` yielded an IC50 (HepG2) of 12.7 µM, an IC50 [3] of 25.1 µM and an IC50 (Bcap37) of 7.99 µM. For the same molecule, the inhibition [4] was “inactive”, the IC50 (MGC-803 [1]) was 10.8 µM and the IC50 [2] was 12.1 µM.
With `CCCSCC(=O)N1N=C(C)C[C@@H]1c1cc(Br)cc(Br)c1O` the Activity (MGC-803 [9]) was 30.1%, the Activity (MGC-803 [10]) was 25.2% and the IC50 (HepG2) was 4 µM. For the same molecule, the IC50 [3] was 1.04 µM, the IC50 (Bcap37) was 3.24 µM and the inhibition [4] was “inactive”. It also gave an IC50 (MGC-803 [1]) of 2.97 µM, an IC50 [2] of 2.3 µM and an Activity (MGC-803 [11]) of 47.2%.
Work on `O=C(CSc1ccc(Br)cc1)N1N=C(c2cc3ccccc3oc2=O)C[C@@H]1c1ccccc1` yielded an IC50 (HepG2) of 14.5 µM, an IC50 (Bcap37) of 13 µM and an IC50 (MGC-803 [1]) of 16.8 µM. For the same molecule, the IC50 [2] was 14.3 µM.
For `O=C(CSc1ccccc1)N1N=C(c2cc3ccccc3oc2=O)C[C@@H]1c1ccccc1`, the IC50 (HepG2) was 16.3 µM, the IC50 (Bcap37) was 14.8 µM and the IC50 (MGC-803 [1]) was 22.8 µM. It also gave an IC50 [2] of 20.3 µM.
In the case of `O=C(CSCc1ccco1)N1N=C(c2cc3ccccc3oc2=O)C[C@@H]1c1ccc(C(F)(F)F)cc1`, the IC50 (HepG2) is reported as 11.2 µM, the IC50 (Bcap37) is reported as 12 µM and the IC50 (MGC-803 [1]) is reported as 15.2 µM. The IC50 [2] was 9.74 µM.
Work on `O=C(CSc1ncccn1)N1N=C(c2cc3ccccc3oc2=O)C[C@@H]1c1ccc(C(F)(F)F)cc1` yielded an IC50 (HepG2) of 4.75 µM, an IC50 (Bcap37) of 3.77 µM and an IC50 (MGC-803 [1]) of 2.89 µM. The IC50 [2] was 4.39 µM.
For `CC1=NN(C(=O)CSc2nc3ccccc3s2)[C@@H](c2cc(Br)cc(Br)c2O)C1`, the IC50 (HepG2) was 8.7 µM, the IC50 [3] was 4.65 µM and the IC50 (Bcap37) was 9.7 µM. It also gave an IC50 (MGC-803 [1]) of 7.8 µM and an IC50 [2] of 12.3 µM.
Work on `CC1=NN(C(=O)CSc2ccc(Br)cc2)[C@@H](c2cc(Br)cc(Br)c2O)C1` yielded an IC50 (HepG2) of 6.87 µM, an IC50 (Bcap37) of 3.2 µM and an IC50 (MGC-803 [1]) of 12.8 µM. For the same molecule, the IC50 [2] was 8.21 µM.
Work on `O=c1[nH]cc(F)c(=O)[nH]1` [FLUOROURACIL] yielded an IC50 (HepG2) of 4.35 µM, an IC50 (Bcap37) of 5.58 µM and an IC50 (MGC-803 [1]) of 3.68 µM. The IC50 [2] was 7.37 µM.
